For orientation: IC50 means the concentration that inhibits the measured activity by half.

Assay [1] relates to A549 cells. In words: Cell-based assay, anti-proliferative activity (Cell Counting Kit-8, 72 hours). Set-up: species or system human. The settings on record: Homo sapiens, A549, 72 h, read-out: IC50 (μM) (A549). An outline of the steps:
(§1)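 Cells seeded at 2,000–3,000 cells/well and exposed to candidate MELK inhibitors for 72 hours; growth measured with Cell Counting Kit-8. IC50 values calculated from the growth read-out.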

In assay [2] the test system is DU4475 cells. The assay is described as above. Conditions: Homo sapiens, DU-4475, 72 h, read-out: IC50 (μM) (DU4475). Set-up: species or system human. Put shortly:
as §1

The test system of assay [3] is 22Rv1 cells. The description is as above. Set-up: species or system human. Conditions: Homo sapiens, 22Rv1, 72 h, read-out: IC50 (μM) (22Rvl). An outline of the steps:
as §1

Assay [4] relates to T47D cells. The assay is described as above. Set-up: species or system human. Conditions: Homo sapiens, T47D, 72 h, read-out: IC50 (μM) (T47D). An outline of the steps:
as §1

Assay [5] relates to HT1197 cells. In words: Cell-based assay, anti-proliferative activity, MELK-negative control (Cell Counting Kit-8, 72 hours). Set-up: species or system human. The settings on record: Homo sapiens, HT1197, 72 h, read-out: IC50 (μM) (HTll97). On the procedure:
100 micro-L of cell suspension was seeded onto 96-well microtiter plate (ViewPlate-96FTC, PerkinElmer). The initial cell concentration of 22Rv1, T47D, A549, DU4475, and HT1197 were 3,000 cells/well, 2,000 cells/well and 2,500 cells/well, respectively. Cellular growth was determined using Cell Counting Kit-8 (DOJINDO) at 72 hours after the exposure of the candidate inhibitors. […] Accurate IC50 values were calculated as described previously.

Assay [6] deals with MELK (Homo sapiens, UniProt Q14680). In words: Kinase assay (IMAP fluorescence polarization, FITC-labeled histone H3 peptide). The settings on record: 50 micro-M ATP. The format is biochemical. An outline of the steps: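 Kinase (0.8 ng/μL) reacted with 100 nM FITC-histone H3 peptide and 50 μM ATP in 20 mM HEPES, 0.3 mM MgCl2, 2 mM DTT, 0.01% Tween-20, pH 7.4, for 1 hour at room temperature. Phosphorylation read by IMAP fluorescence polarization after adding binding solution; IC50 from four-parameter fit.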
On the technique in general: In fluorescence polarisation assays a small probe gives low polarisation when free and higher when bound to something large.

Structures can show the parent of a compound that is named as a salt.

MELK, sequence (Q14680 whole entry, looked up): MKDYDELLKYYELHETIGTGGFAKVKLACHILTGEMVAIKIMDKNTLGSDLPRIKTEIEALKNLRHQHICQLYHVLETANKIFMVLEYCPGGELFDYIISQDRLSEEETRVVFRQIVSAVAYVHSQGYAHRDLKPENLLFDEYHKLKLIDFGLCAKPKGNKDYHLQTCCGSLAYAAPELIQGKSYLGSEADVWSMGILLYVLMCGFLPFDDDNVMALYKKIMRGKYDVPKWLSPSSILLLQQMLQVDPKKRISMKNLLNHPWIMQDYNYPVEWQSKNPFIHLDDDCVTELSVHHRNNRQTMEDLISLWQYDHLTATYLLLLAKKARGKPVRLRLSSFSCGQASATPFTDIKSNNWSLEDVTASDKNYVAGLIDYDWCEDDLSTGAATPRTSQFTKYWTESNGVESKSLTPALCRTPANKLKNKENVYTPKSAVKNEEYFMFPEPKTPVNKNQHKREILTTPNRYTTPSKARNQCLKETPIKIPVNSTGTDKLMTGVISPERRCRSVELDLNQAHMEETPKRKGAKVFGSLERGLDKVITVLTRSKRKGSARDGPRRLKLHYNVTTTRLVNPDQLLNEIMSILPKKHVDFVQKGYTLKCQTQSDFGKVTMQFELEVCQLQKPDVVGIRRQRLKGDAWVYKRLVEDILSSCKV

Take `CC(=O)c1cnc2ccc(-c3cc(Cl)c(O)c(Cl)c3)nc2c1N[C@H]1CC[C@H](CN(C)CCO)CC1` [Example 48, 1-[6-(3,5-Dichloro-4-hydroxyphenyl)-4-(trans-4-{[(2-hydroxyethyl)(methyl)amino]methyl}-cyclohexylamino)-1,5-naphthyridin-3-yl]ethanone dihydrochloride]: the IC50 in assay [1] was 0.02 µM; in assay [2] it was 0.0034 µM; in assay [3], 0.0092 µM; in assay [4] it was 0.0068 µM; in assay [5] it was 0.57 µM; in assay [6], 0.0006 µM.

For the compound `CC(=O)c1cnc2ccc(-c3cc(F)c(O)c(Cl)c3)nc2c1N[C@H]1CC[C@H](CN(C)CCO)CC1` [Example 49, 1-[6-(3-Chloro-5-fluoro-4-hydroxyphenyl)-4-(trans-4-{[(2-hydroxyethyl)(methyl)amino]-methyl}cyclohexylamino)-1,5-naphthyridin-3-yl]ethanone dihydrochloride], the half-inhibitory concentration (IC50) in assay [1] amounted to 0.021 µM; in assay [2], 0.0039 µM; in assay [3], 0.0087 µM; in assay [4], 0.0039 µM; in assay [5] it was 0.49 µM; in assay [6], 0.001 µM.

Consider `CC(=O)c1cnc2ccc(-c3cc(F)c(O)c(F)c3)nc2c1N[C@H]1CC[C@H](CN(C)C)CC1` [Example 50, 1-[6-(3,5-Difluoro-4-hydroxyphenyl)-4-{trans-4-[(dimethylamino)methyl]cyclohexylamino}-1,5-naphthyridin-3-yl]ethanone dihydrochloride], for which the 50% inhibitory concentration (IC50) in assay [1] stood at 0.015 µM; in assay [2], 0.0053 µM; in assay [3], 0.017 µM; in assay [4], 0.0061 µM; in assay [5], 0.08 µM; in assay [6], 0.0019 µM.

Turning to `CC(=O)c1cnc2ccc(-c3cc(Cl)c(O)c(Cl)c3)nc2c1Nc1ccc(N2CCC(N(C)C)C2)nc1` (stereo not drawn) [Example 51, 1-[6-(3,5-Dichloro-4-hydroxyphenyl)-4-{6-[3-(dimethylamino)pyrrolidin-1-yl]pyridin-3-ylamino}-1,5-naphthyridin-3-yl]ethanone trihydrochloride], the IC50 in assay [1] came out at 0.32 µM; in assay [2] it was 0.32 µM; in assay [3], 0.36 µM; in assay [4] it was 0.19 µM; in assay [5] it was 2.8 µM; in assay [6], 0.0082 µM.

Take `CC(=O)c1cnc2ccc(-c3cc(F)c(O)c(Cl)c3)nc2c1Nc1ccc(N2CCC(N(C)C)C2)nc1` (stereo not drawn) [Example 52, 1-[6-(3-Chloro-5-fluoro-4-hydroxyphenyl)-4-{6-[3-(dimethylamino)pyrrolidin-1-yl]pyridin-3-ylamino}-1,5-naphthyridin-3-yl]ethanone trihydrochloride]: the 50% inhibitory concentration (IC50) in assay [1] stood at 0.39 µM; in assay [2], 0.4 µM; in assay [3], 0.44 µM; in assay [4] it was 0.18 µM; in assay [5], 2 µM; in assay [6], 0.027 µM.

On to `CNC1CCN(c2ccc(Nc3c(C(C)=O)cnc4ccc(-c5cc(Cl)c(O)c(Cl)c5)nc34)cn2)C1` (stereo not drawn) [Example 53, 1-(6-(3,5-Dichloro-4-hydroxyphenyl)-4-{6-[3-(methylamino)pyrrolidin-1-y]pyridin-3-ylamino}-1,5-naphthyridin-3-yl)ethanone trihydrochloride], for which the half-maximal inhibitory concentration (IC50) in assay [1] is 0.2 µM; in assay [2], 0.071 µM; in assay [3], 0.078 µM; in assay [4] it was 0.042 µM; in assay [5] it was 100 µM; in assay [6], 0.0015 µM.

Consider `CNC1CCN(c2ccc(Nc3c(C(C)=O)cnc4ccc(-c5cc(F)c(O)c(Cl)c5)nc34)cn2)C1` (stereo not drawn) [Example 54, 1-(6-(3-Chloro-5-fluoro-4-hydroxyphenyl)-4-{6-[3-(methylamino)pyrrolidin-1-yl]pyridin-3-ylamino}-1,5-naphthyridin-3-yl)ethanone trihydrochloride], for which the half-maximal inhibitory concentration (IC50) in assay [1] was 0.17 µM; in assay [2], 0.11 µM; in assay [3] it was 0.086 µM; in assay [4], 0.04 µM; in assay [5], 3.9 µM; in assay [6], 0.012 µM.

With `CC(=O)c1cnc2ccc(-c3ccc4[nH]cnc4c3)nc2c1N[C@H]1CC[C@H](CN(C)C)CC1` [Example 55, 1-(6-(1H-Benzo[d]imidazol-5-yl)-4-{trans-4-[(dimethylamino)methyl]cyclohexylamino}-1,5-naphthyridin-3-yl)ethanone trihydrochloride], the IC50 in assay [1] worked out at 0.25 µM; in assay [2], 0.65 µM; in assay [3] it was 0.3 µM; in assay [4], 0.084 µM; in assay [5], 2 µM; in assay [6], 0.017 µM.

For the compound `CC(=O)c1cnc2ccc(-c3ccncc3)nc2c1N[C@H]1CC[C@H](CN(C)C)CC1` [Example 56, 1-{4-[4-(trans-4-Dimethylamino)methylcyclohexylamino]-6-(pyridin-4-yl)-1,5-naphthyridin-3-yl}ethanone trihydrochloride], the 50% inhibitory concentration (IC50) worked out at 0.52 µM in assay [1]; 0.46 µM in assay [2]; 0.86 µM in assay [3]; 0.38 µM in assay [4]; 1.7 µM in assay [5]; 0.016 µM in assay [6].

As to `CC(=O)c1cnc2ccc(-c3cnc(C#N)nc3)nc2c1N[C@H]1CC[C@H](CN(C)C)CC1` [Example 57, 5-(7-Acetyl-8-{trans-4-[(dimethylamino)methyl]cyclohexylamino}-1,5-naphthyridin-2-yl)pyrimidine-2-carbonitrile], the IC50 in assay [1] turned out to be 0.56 µM; in assay [2], 0.22 µM; in assay [3], 0.24 µM; in assay [4], 0.089 µM; in assay [5] it was 0.38 µM; in assay [6], 0.0012 µM.

`CC(=O)c1cnc2ccc(-c3c(C)n[nH]c3C)nc2c1N[C@H]1CC[C@H](CN(C)C)CC1` [Example 58, 1-(6-(3,5-Dimethyl-1H-pyrazol-4-yl)-4-{trans-4-[(dimethylamino)methyl]cyclohexylamino}-1,5-naphthyridin-3-yl)ethanone trihydrochloride]: the IC50 in assay [1] worked out at 3 µM; in assay [2] it was 5.9 µM; in assay [3] it was 6.1 µM; in assay [4], 1.6 µM; in assay [5], 10 µM; in assay [6], 1 µM.

Consider `CC(=O)c1cnc2ccc(-c3cc(C)c(O)c(C)c3)nc2c1N[C@H]1CC[C@H](CN(C)C)CC1` [Example 59, 1-(4-{trans-4-[(Dimethylamino)methyl]-cyclohexylamino}-6-(4-hydroxy-3,5-dimethylphenyl)-1,5-naphthyridin-3-yl) ethanone dihydrochloride], for which the 50% inhibitory concentration (IC50) in assay [1] was 0.23 µM; in assay [2] it was 0.21 µM; in assay [3], 2.5 µM; in assay [4], 0.39 µM; in assay [5], 7.5 µM; in assay [6] it was 0.0047 µM.

As to `CC(=O)c1cnc2ccc(-c3cc(Cl)c(O)c(Cl)c3)nc2c1Nc1ccc(CN2CCCC2)cc1` [Example 60, dihydrochloride], the IC50 worked out at 0.11 µM in assay [1]; 0.041 µM in assay [2]; 0.1 µM in assay [3]; 0.066 µM in assay [4]; 1.1 µM in assay [5]; 0.0043 µM in assay [6].

With `CC(=O)c1cnc2ccc(-c3cc(Cl)c(O)c(Cl)c3)nc2c1N[C@H]1CC[C@H](CN2CCCC2)CC1` [Example 61, 1-{6-(3,5-Dichloro-4-hydroxyphenyl)-4-[trans-4-(pyrrolidin-1-ylmethyl)cyclohexylamino]-1,5-naphthyridin-3-yl}ethanone dihydrochloride], the IC50 in assay [1] turned out to be 0.012 µM; in assay [2], 0.0044 µM; in assay [3], 0.011 µM; in assay [4], 0.0069 µM; in assay [5] it was 0.15 µM; in assay [6], 0.0004 µM.

As to `CC(=O)c1cnc2ccc(-c3cc(F)c(O)c(Cl)c3)nc2c1N[C@H]1CC[C@H](CN2CCCC2)CC1` [Example 62, 1-(6-(3-Chloro-5-fluoro-4-hydroxyphenyl)-4-{[trans-4-(pyrrolidin-1-ylmethyl)cyclohexyl]amino}-1,5-naphthyridin-3-yl)ethanone dihydrochloride], the IC50 in assay [1] is 0.011 µM; in assay [2], 0.0037 µM; in assay [3], 0.0073 µM; in assay [4], 0.0034 µM; in assay [5] it was 0.091 µM; in assay [6] it was 0.0009 µM.

On to `CC(=O)c1cnc2ccc(-c3cc(Cl)c(O)c(Cl)c3)nc2c1N[C@H]1CC[C@H](CN2CCN(C)CC2)CC1` [Example 63, 1-(6-(3,5-Dichloro-4-hydroxyphenyl)-4-{trans-4-[(4-methylpiperazin-1-yl)methyl]cyclohexyl-amino}-1,5-naphthyridin-3-yl)ethanone trihydrochloride], for which the half-maximal inhibitory concentration (IC50) came to 0.02 µM in assay [1]; 0.0092 µM in assay [2]; 0.025 µM in assay [3]; 0.016 µM in assay [4]; 0.13 µM in assay [5]; 0.0008 µM in assay [6].

These data come from US9067937B2 (priority 2012, dated 2015).
